Test results as given in patent EP4183391A1, “PHARMACEUTICAL COMPOSITION AND USE THEREOF” (Shenzhen Salubris Pharmaceuticals Co., Ltd., priority 2020, dated 2022).
Where a name gives a salt, the structure may show the parent alone.

How the values were obtained:
male ICR mice = experiment: Mouse tail suspension model; type: in vivo; details: immobility time
Protocol: 110 male ICR mice were accommodated in the experimental environment for 3 days prior to the test, with 10 animals reserved for future use.
According to the experimental design, the mice were randomly grouped according to their body weight at one day before administration.
The time of initiation of administration was defined as 0 min.
The 2 cm tail end of the mouse was attached to a horizontal metal stick so that the mouse was suspended and the immobility time period of the mouse was observed and recorded over a period of 6 min. The last 4 min of immobility time period was recorded by a timer and was used for data analysis.
Excel software was used to collect data. Data were analyzed using Prism (Graphpad software, Inc.) software, in which variance between two groups was analyzed using the t-test method, and one-way ANOVA with additional Dunnett's multiple comparison test was performed among each animal group. p<0.05 is considered as having a significant difference.

male C57BL/6J mice = experiment: Relieving a cough in mice, concentrated ammonia steam (Example 5); type: in vivo; details: 60 min
Protocol: Ammonium Hydroxide, ACS Reagent, 28.0-30.0% NH3, AI LAN (Shanghai) Chemical Technology Co., Ltd., batch no. CEC1070004. Ultrasonic Nebulizer WH-2000, Guangdong Yuehua Medical Equipment Factory Co., Ltd.
88 male C57BL/6J mice, weighing 20-22 g, were purchased from Beijing Vital River Laboratory Animal Technology Co., Ltd.
Mice in each group were administered with 1 dose of the corresponding experimental drugs to be tested in a volume of 10 ml/kg. After 60 min of administration, the mice were placed in an inverted 600 ml beaker filled with concentrated ammonia saturated steam and immediately timed for 10 s, and then the mice were removed and placed in another inverted 600 ml beaker to observe the coughing of the mice and recorded the total coughs within 5 min.
All experimental data are expressed as means. Statistical analysis was carried out using Graphad Prism 5 software. One-way ANOVA test was used for comparison between groups. SNK was used for comparison between groups with equal variance. Dunnett's T3 was used for comparison between groups with unequal variance. P < 0.05 indicated statistical significance.

[1] = Pharmacokinetic experiments in dogs; details: 14 mg/kg single gavage, Day1, analyte deDM in plasma
Protocol: Reagents: Sodium chloride injection, EDTA-K2, acetonitrile and formic acid were commercially available.
Instrument: AB SCIEX 5500 triple quadrupole mass spectrometer.
18 Beagle dogs, half male and half female, weighing 6 kg-10 kg, were purchased from Jiangsu Yadong Experimental Animal Research Institute Co., Ltd.
After single gavage administration in dogs, about 1 mL of blood was collected with a scalp needle from a vein in the forelimb or hindlimb at 0 min (before administration), 5 min, 15 min, 30 min, 1 h, 2 h, 4 h, 8 h and 24 h in a blood collection tube containing EDTA-K2 anticoagulant and then centrifuged at 4000 rpm for 10 min to separate the plasma which was stored at ≤- 65°C for testing.
The standard curve concentrations of dextromethorphan in plasma were 1 ng/mL, 2 ng/mL, 10 ng/mL, 50 ng/mL, 200 ng/mL, 400 ng/mL, 600 ng/mL and 1000 ng/mL and QC concentrations were 3 ng/mL, 30 ng/mL, 500 ng/mL and 800 ng/mL.

CC(NC(C)(C)C)C(=O)c1cccc(Cl)c1 (stereo not drawn) [Bup, bupropion hydrochloride, reference compound]
Inhibition rate (male ICR mice; 50 mg/kg oral): 56.00%^∗∗

CC(NC(C)(C)C)C(=O)c1cccc(Cl)c1 (stereo not drawn) [Bupropion, 1-(3-chlorophenyl)-2-[(1,1-dimethylethyl)amino]-1-propanone, reference compound]
Cough inhibition rate% (male C57BL/6J mice; 30 mg/kg): 9.1%

[2H]C([2H])([2H])Oc1ccc2c(c1)[C@]13CCCC[C@@H]1[C@H](C2)N(C([2H])([2H])[2H])CC3 [Deuterated dextromethorphan]
Cough inhibition rate% (male C57BL/6J mice; 3 mg/kg): 11.6% | Cough inhibition rate% (male C57BL/6J mice; 12 mg/kg): 22.5%

deuterated dextromethorphan hydrobromide monohydrate [deDM]
Inhibition rate (male ICR mice; 10 mg/kg oral): 5.0% | Inhibition rate (male ICR mice; 12 mg/kg oral): 2.1% | Inhibition rate (male ICR mice; 15 mg/kg oral): 5.9% | Inhibition rate (male ICR mice; 18 mg/kg oral): 4.1% | AUClast ([1]; Female): 153 h^∗ng/ml | Cmax ([1]; Female): 60 ng/mL | AUClast ([1]; Male): 383 h^∗ng/ml | Cmax ([1]; Male): 157 ng/mL
